Consider eight compounds from patent publication US20140171490A1, “Method and Device for Ophthalmic Administration of Active Pharmaceutical Ingredients” (PHARMALIGHT INC., priority 2005, published 2014).

Read-outs that look alike come from different tables or passages of the source.

One data set concerns beta-adrenoceptor. To be noted: cited from earlier work.
In data set [1] the test system is human corneal epithelial cells. To be noted: reported in Burgalassi et al. Tox. Lett. 2001; cited from earlier work.
A further data set relates to eye. To be noted: cited from earlier work.
On the set-up of data set [2]: species or system Lewis female rats. To be noted: rat, in vivo. The method, then: Animal studies were carried out on Lewis female rats (6-8 weeks of age) from Harlan Laboratories Inc. (Rehovot, Israel). In some cases as noted below, the rats were anesthetized with ketamin/xylazine […].
ELISA tests were performed using commercially available ELISA kits from Assay Designs (Ann Arbor, Mich., USA) in accordance with the manufacturer's instructions in the usual way in conjunction with a BioTek EL-310 plate reader (Cambridge Scientific Products, Cambridge, Mass., USA).
Pharmaceutical compositions were administered by instillation in the eyes of rats or administered as a mist using the nebulization device described above at a rate of 10 μl minute^−1. Subsequent to administration and a waiting time, the rats were sacrificed.
Subsequent to sacrifice, serum, cerebrospinal fluid (CSF, 50-100 μl), retina, optic nerve, sclera, and aqueous humor (AH) of an animal were harvested. The retina, optic nerve, and sclera of each animal was individually homogenized in 120 ul assay buffer on ice and centrifuged. The serum, CSF, AH and the homogenized retina, optic nerve and sclera were assayed for the presence of leptin using ELISA.
Data below is expressed as pg ml^−1 for serum, CSF and AH and as pg mg^−1 for tissue (determined using the Lowry method). […]

[3] abbreviates: reported in Saettone et al. Int. J. Pharma. 1996.

Regarding `CC(C)(C)NCC(O)COc1cccc2c1CCCC2=O.Cl` (single isomer, unassigned; (-)) [Levobunolol, (−)-5-[3-(tert-Butylamino)-2-hydroxypropoxy]-3,4-dihydro-1(2H)-naphthalenone hydrochloride], the “potency in beta-blocking activity relative to its dextro isomer” value in the data set on beta-adrenoceptor is “greater than 60 times”.
As to `CCCCCCCCCCCCCCCC[n+]1ccccc1` [cetylpyridinium chloride], in data set [1], the “toxicity to human corneal epithelial cells relative to Brij-78 and EDTA” value is on record as “less toxic to human corneal epithelial cells than Brij-78 but more toxic than EDTA”.
For the compound `C[C@@H]1CC[C@@]2(OC1)O[C@H]1[C@@H](O)[C@H]3[C@@H]4CC[C@H]5C[C@@H](O[C@@H]6O[C@H](CO)[C@H](O[C@@H]7O[C@H](CO)[C@@H](O)[C@H](O[C@@H]8OC[C@@H](O)[C@H](O)[C@H]8O)[C@H]7O[C@@H]7O[C@H](CO)[C@H](O)[C@H](O[C@@H]8O[C@H](CO)[C@@H](O)[C@H](O)[C@H]8O)[C@H]7O)[C@H](O)[C@H]6O)[C@H](O)C[C@]5(C)[C@H]4CC[C@]3(C)[C@H]1[C@@H]2C` [digitonin], in the data set on eye (setting [3]), the “irritation to the eye” value is “strongly irritating to the eye”.
Take `CC(=O)O[C@H]1C[C@@]2(C)[C@@H](C[C@@H](O)[C@H]3[C@@]4(C)CC[C@@H](O)[C@@H](C)[C@@H]4CC[C@@]32C)/C1=C(\CCC=C(C)C)C(=O)O` [sodium fusidate]: the “irritation to the eye” value in the data set with eye (reported in Furrer et al. AAPS PharmSci 2002) is given as “strongly irritating to the eye”.
With BL-9, in the data set on eye (setting [3]), the “irritation to the eye” value is reported as “strongly irritating to the eye”.
On to Brij-99, for which the “irritation to the eye” value with eye (reported in Morgan, J. Ocular Pharm. Ther. 1995) is reported as “strongly irritation to the eye”.
On to benzalkonium chloride, for which, in data set [1], the “toxicity to human corneal epithelial cells relative to Brij-78 and EDTA” value is “less toxic to human corneal epithelial cells than Brij-78 but more toxic than EDTA”. Further, the “irritation to the eye” value in the data set on eye (setting [3]) is reported as “strongly irritating to the eye”.
Take leptin: the “leptin concentration in optic nerve and sclera relative to retina” value in data set [2] was “markedly higher than in the retina”.
